Measurements reported in article PMC9180926, “Discovery of Novel 3-Hydroxyquinazoline-2,4(1H,3H)-Dione Derivatives: A Series of Metal Ion Chelators with Potent Anti-HCV Activities” (International Journal of Molecular Sciences, 2022).

Assays:
[1] = test system: HCV 1b replicon cells (Huh-7.5.1); assay: Anti-HCV assay, HCV 1b replicon cells with luciferase reporter; type: cell-based, hepatitis C virus (HCV) subtype 1b; settings: Hepatitis C virus, HCV 1b replicon cells; for EC50: Huh-7.5.1, 50% effective concentration, mean ± SD; for inhibition at 10 µM / inhibition at 25 µM: Huh-7.5.1, 72 h, 72 h; for inhibition at 10 µM: inhibitory rate at 10 μM, read-out: HCV Inhibition 10 μM; for inhibition at 25 µM: inhibitory rate at 25 μM, read-out: HCV Inhibition 25 μM
Method: (§1) The HCV replicons were validated as convenient and effective models for testing the anti-HCV activity. Since HCV subtype 1b is one of the major subtypes worldwide, especially in China, the replicon model from the Huh-7.5.1 cell line integrating HCV 1b genome encoding the nonstructural proteins was chosen to evaluate the anti-HCV activities of 3-hydroxyquinazoline-2,4(1H,3H)-diones. The inhibitory rates of the compounds on HCV replicon cells were determined at concentrations of 25 μM and 10 μM, respectively. The broad-spectrum antiviral drug ribavirin (RBV) and the NS5B nucleoside inhibitor 2′-C-methyladenosine (2CMA) were selected as positive controls. The cytotoxicity of these compounds on replicon cells was determined using the cell counting kit-8 (CCK-8) assay.
HCV 1b replicon cells (Huh-7.5.1) containing luciferase reporter gene were kindly provided by Prof. Zhenghong Yuan (Key Laboratory of Medical Molecular Virology, Fudan University, Shanghai, China). The replicon cells were plated at 1.5 × 10^4 cells per well in a 48-well plate (Corning Inc., New York, NY, USA) at 5% CO2/37 °C. The culture medium was Dulbecco’s Modified Eagle Medium (DMEM, pH 7.3, Shanghai XP Biomed Ltd., Shanghai, China) containing 10% fetal bovine serum (Shanghai XP Biomed Ltd., Shanghai, China), 10^5 U/L penicillin, 0.1 g/L streptomycin, and 0.5 μg/mL blasticidin. After 12 h, the culture medium in each well was replaced with 300 μL of pre-prepared fresh culture medium containing test compound (dissolved in DMSO with specific concentration) or blank DMSO. The final concentration of DMSO in the culture medium in the plate was 0.1%. Each group was tested at least twice in parallel. Ribavirin and 2CMA were used as the positive controls. After incubating the drug-added plate at 5% CO2/37 °C for 72 h, the medium was removed, and each well was washed with 300 μL of phosphate buffer solution (PBS, Shanghai XP Biomed Ltd., Shanghai, China). The cells in each well were then lysed with 50 μL of 1× lysis buffer (E2820, Promega, Madison, WI, USA). Subsequently, 50 μL of 1× luciferase assay substrate (E2820, Promega, Madison, WI, USA) was mixed with 20 μL of the harvested cell lysates.
The inhibitory rates under at least six different concentration gradients were imported into GraphPad Prism 7.0 software to calculate the anti-HCV EC50 values of the compounds using the nonlinear fitting method.

[2] = test system: HCV 1b replicon cells (Huh-7.5.1); assay: as above; type: cell-based, hepatitis C virus (HCV) subtype 1b; settings: Hepatitis C virus, Huh-7.5.1, 72 h, inhibitory rate at 5 μM
[3] = Cytotoxicity assay (CCK-8) on replicon cells; type: cell-based; settings: human, HCV 1b replicon cells (Huh-7.5.1); 50% cytotoxic concentration; CCK-8, HCV 1b replicon cells, 72 h
Method: as §1
The HCV 1b replicon cells were incubated and treated with test compounds or blank DMSO in a 48-well plate using the same materials and methods as described in the experimental procedure of anti-HCV assay. The final concentration of DMSO in each well was 0.1%. After 72 h of drug treatment, the culture medium in the well plate was removed, and cells in each well were washed with 300 μL of PBS. A total of 300 μL of pre-prepared fresh culture medium containing 30 μL CCK-8 reagent (Donjindo, Kumamoto, Japan) was added to each well, and the plate was incubated at 5% CO2/37 °C for 2 h. The OD (optical density) value of each well at 450 nm was measured using a multi-function microplate reader (SpectraMax M5, Molecular Devices, San Jose, CA, USA). The death ratio of each well was calculated using the following equation, in which ODcompound or ODblank represents the measured OD value of the compound group or the blank control (DMSO), respectively:death ratio = (1−ODcompound/ODblank) × 100%(2)
The cell death data under at least six different concentration gradients were imported into GraphPad Prism 7.0.0 software (GraphPad Software Inc., San Diego, CA, USA), and the CC50 (50% cytotoxic concentration) values were calculated using the nonlinear fitting method.

Compound | EC50 [1] | inhibition at 10 µM [1] | inhibition at 5 µM [2] | CC50 at 72 h [3] | inhibition at 25 µM [1]
O=c1[nH]c2ccc(-c3ccccc3)cc2c(=O)n1O [21a, 3-Hydroxy-6-phenylquinazoline-2,4(1H,3H)-dione] | 4.3 ± 0.7 µM | 65.4% | 35.6% | 5.5 ± 1 µM | 
O=c1[nH]c2ccc(-c3ccc(F)cc3)cc2c(=O)n1O [21b, 6-(4-Fluorophenyl)-3-hydroxyquinazoline-2,4(1H,3H)-dione] | 6.1 ± 0.1 µM | 79.7% | 47.7% | 8 ± 2.2 µM | 
COc1ccc(-c2ccc3[nH]c(=O)n(O)c(=O)c3c2)cc1 [21c, 3-Hydroxy-6-(4-methoxyphenyl)quinazoline-2,4(1H,3H)-dione] | 7.2 ± 0.8 µM | 48.2% | 11.1% | 14.8 ± 5.3 µM | 
O=c1[nH]c2ccc(-c3cccc([N+](=O)[O-])c3)cc2c(=O)n1O [21d, 3-Hydroxy-6-(3-nitrophenyl)quinazoline-2,4(1H,3H)-dione] | 4.8 ± 0.8 µM | 78.5% | 71.1% | 6.6 ± 1.5 µM | 
O=c1[nH]c2cc(-c3ccc(F)cc3)ccc2c(=O)n1O [21f, 7-(4-Fluorophenyl)-3-hydroxyquinazoline-2,4(1H,3H)-dione] | 3.1 ± 0.1 µM | 78.8% | 73.4% | 4.1 ± 0.6 µM | 
Nc1ccccc1-c1ccc2c(=O)n(O)c(=O)[nH]c2c1 [21g, 7-(2-Aminophenyl)-3-hydroxyquinazoline-2,4(1H,3H)-dione] | 8.8 ± 1.8 µM | 64.7% | 24.7% | 16.2 ± 0.7 µM | 
Nc1cccc(-c2ccc3c(=O)n(O)c(=O)[nH]c3c2)c1 [21j, 7-(3-Aminophenyl)-3-hydroxyquinazoline-2,4(1H,3H)-dione] | 7.3 ± 1.3 µM | 51% | 16.1% | 13 ± 0.8 µM | 
O=c1[nH]c2cc(-c3ccc(F)c(Cl)c3)ccc2c(=O)n1O [21l, 7-(3-Chloro-4-fluorophenyl)-3-hydroxyquinazoline-2,4(1H,3H)-dione] | 7.9 ± 1 µM | 49.7% | 25.9% | 40.7 ± 3.9 µM | 
Cc1ccc(F)cc1-c1ccc2c(=O)n(O)c(=O)[nH]c2c1 [21p, 7-(5-Fluoro-2-methylphenyl)-3-hydroxyquinazoline-2,4(1H,3H)-dione] | 9.9 ± 0.6 µM | 44.9% |  | 13.4 ± 5.2 µM | 
O=c1[nH]c2cc(-c3cccnc3)ccc2c(=O)n1O [21r, 3-Hydroxy-7-(pyridin-3-yl)quinazoline-2,4(1H,3H)-dione] |  | 26.9% | -5.5% |  | 65.4%
O=c1[nH]c2cc(-c3ccco3)ccc2c(=O)n1O [21s, 7-(Furan-2-yl)-3-hydroxyquinazoline-2,4(1H,3H)-dione] | 4 ± 0.5 µM | 72.6% | 56.2% | 16.3 ± 0.6 µM | 
O=c1[nH]c2c(-c3ccccc3)cccc2c(=O)n1O [21u, 3-Hydroxy-8-phenylquinazoline-2,4(1H,3H)-dione] |  | 27.5% | 1.8% |  | 40.9%
Cn1c(=O)n(O)c(=O)c2cc(-c3cccc([N+](=O)[O-])c3)ccc21 [23a, 3-Hydroxy-1-methyl-6-(3-nitrophenyl)quinazoline-2,4(1H,3H)-dione] | 2.3 ± 0.1 µM | 66.5% |  | 5.2 ± 0.1 µM | 
Cn1c(=O)n(O)c(=O)c2ccc(-c3ccccc3)cc21 [23b, 3-Hydroxy-1-methyl-7-phenylquinazoline-2,4(1H,3H)-dione] | 3.9 ± 1 µM | 79.5% | 39.2% | 6.7 ± 0.3 µM | 
Cn1c(=O)n(O)c(=O)c2ccc(-c3ccc(F)cc3)cc21 [23c, 7-(4-Fluorophenyl)-3-hydroxy-1-methylquinazoline-2,4(1H,3H)-dione] | 4.6 ± 0.5 µM | 79.1% | 40.6% | 8.1 ± 0.2 µM | 
COc1ccc(-c2ccc3c(=O)n(O)c(=O)n(C)c3c2)cc1 [23d, 3-Hydroxy-7-(4-methoxyphenyl)-1-methylquinazoline-2,4(1H,3H)-dione] | 3.3 ± 0.2 µM | 73.3% |  | 9.3 ± 0.4 µM | 
CCn1c(=O)n(O)c(=O)c2ccc(-c3ccccc3)cc21 [23e, 1-Ethyl-3-hydroxy-7-phenylquinazoline-2,4(1H,3H)-dione] | 26.8 ± 2.5 µM | 24.6% |  | 39.5 ± 2.3 µM | 77.5%
O=C(Cn1c(=O)n(O)c(=O)c2ccc(-c3ccco3)cc21)Nc1ccccc1Cl [23j, N-(2-Chlorophenyl)-2-(7-(furan-2-yl)-3-hydroxy-2,4-dioxo-3,4-dihydroquinazolin-1(2H)-yl)acetamide] | 5.2 ± 1.9 µM | 47.8% |  | 12.2 ± 3.3 µM | 80%
O=c1[nH]c2cc(Br)ccc2c(=O)n1O [compound 19, 7-Bromo-3-hydroxyquinazoline-2,4(1H,3H)-dione] | 19 ± 1.8 µM | 41.1% | 23.5% | 37.6 ± 2.6 µM | 72%
